Experimental data published in patent US12239654B2, “Compounds and methods for treating neurological and cardiovascular conditions” (Astrocyte Pharmaceuticals, Inc., priority 2016, dated 2025).

Legend:
[1] = target: T1, human A3 adenosine receptor (Homo sapiens, UniProt P0DMS8); assay: cAMP accumulation at human A3 receptors expressed in CHO cells; assay type: cell-based
T1 construct: expressed in transfected cells; whole cells for cAMP
T1 sequence (P0DMS8 1-318): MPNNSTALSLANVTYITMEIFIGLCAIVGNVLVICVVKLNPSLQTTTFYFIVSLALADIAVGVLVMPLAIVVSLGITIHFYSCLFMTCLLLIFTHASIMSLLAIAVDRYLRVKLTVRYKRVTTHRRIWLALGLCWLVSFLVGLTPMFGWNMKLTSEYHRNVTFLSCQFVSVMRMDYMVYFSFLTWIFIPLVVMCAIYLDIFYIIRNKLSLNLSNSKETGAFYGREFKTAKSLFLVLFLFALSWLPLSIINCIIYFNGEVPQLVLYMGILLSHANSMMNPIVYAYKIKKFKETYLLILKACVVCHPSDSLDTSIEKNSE
Description: Additionally cAMP experiments were conducted at CHO cells recombinantly expressing human A3 or mouse A3 adenosine receptors, respectively.

[2] = LC-MS/MS metabolite scouting of MRS2365 in plasma and whole blood; assay type: in vitro ADME; conditions: EDTA-treated mouse and human whole blood
Description: Plasma Stability Determination: MRS2365, enalapril and procaine were solubilized in phosphate-buffered saline, pH 7.4. […] Stability incubations were initiated with the addition of MRS2365 (1 μM final concentration). Initial assessments of stability in EDTA-generated plasma utilized incubation timepoints of 0, 10, 30, 60, 120 and 240 minutes (FIGS. 3 and 4). Subsequent studies comparing EDTA- and heparin-generated plasma utilized incubation timepoints of 0, 1, 2.5, 5, 7.5, 10 and 30 minutes (FIG. 7). Additional plasma stability incubations comparing EDTA- and heparin-generated plasma were performed using timepoints of 0, 5, 10, 20, 30, 45, 60 and 90 seconds (FIG. 8). […]
Plasma and blood samples were also qualitatively analyzed for MRS2365 metabolites utilizing a LC-MS/MS-based “metabolite scouting” protocol. […] Blood and plasma samples were analyzed by both positive- and negative-ion LC/MS-MS for parent compound and metabolites as it was anticipated that the phosphorylated compounds would preferentially generate negative ions while the riboside MRS4322 would preferentially generate positive ions. In positive-ion mode, extracted ion chromatograms monitored masses in the range of 323.7-324.7 and 403.7-404.7 to scout for MRS4322 and MRS2347, respectively. Any ion peaks in these ranges were further analyzed to generate product ion spectra for these ion chromatogram peaks. […]

Row | Compound | EC50 ([1]; CHO cells stably expressing human A3R, read-out: EC50 ± SEM, Human A3R, cAMP accumulation) | Emax at 100 µM ([1]; read-out: efficacy at 100 μM concentration in % relative to maximal effect of NECA, Human A3R, 100 μM, cAMP accumulation, CHO cells) | metabolites detected [2]
1 | CSc1nc(N)c2ncn([C@H]3[C@H](O)[C@H](O)[C@]4(CO)C[C@H]34)c2n1 [MRS4322] | 3.63 ± 0.37 µM | 70% | –
2 | CSc1nc(N)c2ncn([C@H]3[C@H](O)[C@H](O)[C@]4(COP(=O)(O)OP(=O)(O)O)C[C@H]34)c2n1 [MRS2365] | – | – | No metabolites were detected
